# System: STZ induced diabetic rats
# Assay: Reduction in serum glucose in STZ induced diabetic rats
# Type: in vivo, Wistar rats
# Settings: 10 IU/Kg insulin via subcutaneous route
# Description: Wistar rats (150-200 g) of both sexes were obtained from National Institute of Nutrition, Hyderabad. The animals were housed at a room temperature of 22±2° C. with 12 h light/dark cycle and 45-50% relative humidity. The animals had ad libitum access to a standard chow diet (Nutrilab, Banglore) and water except, wherever indicated. After randomization into various groups, the rats were acclimatized for a period of seven days in the new environment before initiation of the experiment.
# Diabetes was induced by streptozotocin (STZ) injection. STZ in rats leads to the development of a clinical syndrome characterized by hyperglycemia, excessive osmotic diuresis, and loss of weight, which is similar to human diabetes. Moreover, the STZ-diabetic rat develops the usual chronic microvascular complications (nephropathy, peripheral and autonomic neuropathy) as observed in diabetic patients. Schaan, B. D., et al. Braz J Med Biol Res, 37:12:1895-1902 (2004).
# Animals were made diabetic by injecting 50-60 mg/kg STZ dissolved in sodium citrate buffer, pH 4.5. Rats were fasted overnight before STZ administration. STZ-treated rats were used only when they developed elevated plasma glucose levels (confirmed by qualitative measurements of blood glucose >300 mg% 48 h after injection). Metabolic control was evaluated on the basis of plasma glucose and animal weight at the end of the experiments.
# The diabetic rats were randomly divided in to six groups consisting of 4 animals. The lyophilized lectin coupled insulin loaded solid lipid nanoparticle formulations (F1, F2, F3 and F4), mentioned in the above examples, containing 10 IU/Kg of total insulin were administered orally to the respective groups after re-dispersing in the appropriate volume of physiological saline solution. The fifth group was treated with 10 IU/Kg of insulin via subcutaneous route and the sixth group was the control group. The control diabetic rats were not treated with insulin or any drug, but an equivalent volume of physiological saline solution was given orally.
# The blood samples were collected at each scheduled time intervals. The plasma was separated by centrifugation and serum glucose levels were estimated as described in Bergmeyer, H. U. Methods of Enzymatic Analysis New York: Academic (1974). Plasma samples of all animals were stored at −80° C. until analyzed.
substance,measurement,setting,value
insulin [Unencapsulated Insulin],Mean % Reduction in serum Glucose Levels,2.0 hrs,8.2 ± 2.3%
same,Mean % Reduction in serum Glucose Levels,3.0 hrs,15.1 ± 1.2%
same,Mean % Reduction in serum Glucose Levels,4.0 hrs,23.2 ± 3.2%
same,Mean % Reduction in serum Glucose Levels,5.0 hrs,36.2 ± 1.2%
same,Mean % Reduction in serum Glucose Levels,6.0 hrs,12.1 ± 4.3%
same,Mean % Reduction in serum Glucose Levels,8.0 hrs,19.2 ± 3.3%
same,Mean % Reduction in serum Glucose Levels,10.0 hrs,25.1 ± 3.2%
same,Mean % Reduction in serum Glucose Levels,12.0 hrs,29.2 ± 1.2%

# — US20080311214A1, “Polymerized solid lipid nanoparticles for oral or mucosal delivery of therapeutic proteins and peptides” (Transgene Biotek Limited, priority 2006, published 2008)
